Data: article PMC3515450, “Mechanistic and Structural Understanding of Uncompetitive Inhibitors of Caspase-6” (PLoS ONE, 2012)
pIC50: −log10 of the molar value.

Key:
caspase-7 = molecular target: T1, caspase-7 (Homo sapiens, UniProt P55210); test: Caspase-7 enzymatic assay with divalent R110 substrate; format: biochemical; conditions: caspase-7, (DEVD)2R110 substrate
T1 construct: as the catalytic domain consisting of large p20 and small p10 subunits without prodomain; made in house
T1 sequence (P55210 24-198 limits assumed): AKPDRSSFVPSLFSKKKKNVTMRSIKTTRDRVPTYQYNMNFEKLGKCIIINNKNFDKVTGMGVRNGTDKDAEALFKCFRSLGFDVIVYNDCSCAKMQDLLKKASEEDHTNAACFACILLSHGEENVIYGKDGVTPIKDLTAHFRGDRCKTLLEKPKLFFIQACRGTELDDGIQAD
T1 sequence (P55210 207-303 limits assumed): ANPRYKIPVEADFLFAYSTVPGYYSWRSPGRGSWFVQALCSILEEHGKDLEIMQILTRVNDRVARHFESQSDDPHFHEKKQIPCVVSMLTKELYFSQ
Protocol: The in vitro enzymatic caspase assays utilize synthetic tetrapeptide substrates labeled with the fluorophores Rhodamine110 (R110) or 7-amino-4-methylcoumarin (AMC) at the P1 aspartic acid (Asp) residue. All assays were performed in 384-well plates in 12 µL reaction volume consisting of enzyme, substrate and indicated concentration of inhibitor or DMSO in assay buffer (50 mM HEPES [pH 7.0], 25 mM MgSO4, 0.5 mM EGTA, 5 mM Glutathione (GSH), 0.01% Triton X-100 containing 0.1% Bovine Gamma Globulin (BGG)). All inhibitors were serially diluted in 100% DMSO prior to dilution in assay buffer and transfer to assay plate. DMSO was diluted into assay buffer similarly for blank wells (no enzyme or compound) and final DMSO concentration was 1%. […] Unless otherwise indicated, substrate concentration was within 3-fold of the determined Kmapparent (5 µM (Ac-VEID)2R110 [Kmapp = 8 µM]; 5 µM (Ac-DEVD)2R110 [Kmapp = 8 µM]; 25 µM (Ac-IETD)2R110 [Kmapp = 70 µM]; 25 µM (Ac-WEHD)2R110 [Kmapp = 70 µM]; 10µM Ac-VEID-AMC [Kmapp = 16µM]; 5 µM Ac-VEID-R110 [Kmapp = 8 µM]). […] For all caspase enzymatic assays, the reaction plate was incubated at room temperature for 40 minutes and then read on Envision (Perkin Elmer) fluorescent plate reader at excitation/emission wavelengths of 485/535 nm (R110) or 350/450 nm (AMC). […]

caspase-6 = molecular target: T2, caspase-6 (Homo sapiens, UniProt P55212); test: Cleavage of Lamin A by purified human caspase-6 (western blot); format: biochemical; conditions: 100 µM concentration
T2 construct: Residues 24-179 and 194-293 from caspase-6 cDNA (Origene) were cloned into pET-24b and pET-23b vectors; 6x histidine tag (C); made in house; host or cells: E. coli BL21 (DE3) pLysS
T2 sequence (P55212 24-179): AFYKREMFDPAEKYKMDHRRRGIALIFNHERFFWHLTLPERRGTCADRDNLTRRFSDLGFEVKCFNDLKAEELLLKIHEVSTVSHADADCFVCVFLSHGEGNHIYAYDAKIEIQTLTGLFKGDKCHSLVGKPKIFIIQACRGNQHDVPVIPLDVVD
T2 sequence (P55212 194-293): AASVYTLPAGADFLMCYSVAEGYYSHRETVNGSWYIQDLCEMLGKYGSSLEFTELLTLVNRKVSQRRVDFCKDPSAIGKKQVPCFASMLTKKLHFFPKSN
Protocol: The assay to monitor cleavage of Lamin A by purified human caspase-6 is described in Experimental Procedures S1.
Cleavage of Lamin A by purified human Caspase-6: Recombinant caspase-6 was prepared at 6.6 nM final concentration in assay buffer (40 mM HEPES [pH 7.2], 100 mM NaCl, 1 mM EDTA, 2 mM DTT, 0.1% CHAPS, 3% DMSO), and pre-incubated at 37 °C with increasing concentrations (as indicated) of the compound to be assayed. After 30 minutes, GST-tagged Lamin A substrate (Abnova, Cat# H00004000-P01) was added to the reaction mix at a final concentration of 0.33 µM and the incubation was continued for 2 h at 37 °C. Samples were boiled for 5 min to terminate the proteolytic cleavage reaction before they were resolved by SDS-PAGE (10-20% Tris-glycine gel) and transferred to nitrocellulose. The blot was probed with mouse anti-Lamin A antibody (Abnova # H00004000-B01P) and detected with IRDye800 anti-mouse antibody (LI-COR #926-32210). […] Imaging was done on the LI-COR Odyssey® Infrared Imaging System using the 800 nm channel.

pIC50 (caspase-7): < 4.00
inhibition of caspase-6 cleavage of recombinant Lamin A (caspase-6): did not inhibit
SMILES: COc1ccc(-c2cc(C(=O)N[C@@H](CO)Cc3cccc(C#N)c3)co2)cc1OC [Compound 3]
